Data published in ChEMBL document CHEMBL5226321, “Ivermectin: A Promising Therapeutic for Fighting Malaria. Current Status and Perspective” (J Med Chem, 2021).
“And” between values parts separate entries of the source, which are not always exact repeats. Equal values may be shown once.

What was measured:
Type in all cases: functional, organism-based
Anopheles sp. [1] = assay: Insecticidal in Anopheles sp. infected with Plasmodium falciparum gametocytes assessed as reduction in fecundity fed with compound treated bovine blood at 200 microg/kg feeding at 28 days after injection relative to control; parameters: scale not given: the % may be the effect or the level left; details: dose 200.0 µg/kg
Plasmodium vivax [2] = assay: Antimalarial activity against Plasmodium vivax assessed as reduction in infection in Anopheles sp. mosquito midgut fed with blood isolated from compound treated parasite-infected human at 40 ng/ml observed after 7 days relative to control; details: time 7.0 day
Aedes aegypti [3] = assay: Insecticidal in Aedes aegypti assessed as reduction in survivorship fed with blood of compound treated human at 150 microg/kg administered once; details: dose 150.0 µg/kg
Aedes albopictus = assay: Insecticidal in Aedes albopictus assessed as mortality rate membrane-fed with compound treated human blood at 10 to 100 microg/mL observed within 7 days relative to control; details: dose 10-100 µg/ml, time 7.0 day
Anopheles stephensi [4] = assay: Insecticidal in Anopheles stephensi assessed as lethal concentration membrane-fed with compound treated blood observed after 4 days; details: time 4.0 day
Plasmodium vivax [5] = assay: Antimalarial activity against Plasmodium vivax assessed as reduction in […] in Anopheles darlingi mosquito fed with blood containing plasma isolated from compound treated human observed after 4 days relative to control; details: time 4.0 day, dose or concentration not given here
Anopheles sp. [6] = assay: Insecticidal in Anopheles sp. infected with Plasmodium falciparum gametocytes assessed as reduction in survival fed with compound treated bovine blood at 200 microg/kg feeding at 15 days after injection relative to control; details: dose 200.0 µg/kg
Anopheles sp. [7] = assay: Insecticidal in Anopheles sp. assessed as mortality rate fed with blood of compound treated human at 250 microg/kg administered once and observed for 3 days relative to control; details: dose 250.0 µg/kg, time 3.0 day
Aedes aegypti [8] = assay: Insecticidal in Aedes aegypti assessed as lethal concentration membrane-fed with compound treated blood
Anopheles sp. [9] = assay: Insecticidal in Anopheles sp. assessed as mortality fed with compound treated human blood at 400 microg/kg in the presence of 6 mg/kg diethylcarbamazine citrate observed in 24 hrs relative to control; details: dose 400.0 µg/kg
Anopheles gambiae [10] = assay: Insecticidal in Anopheles gambiae assessed as mortality fed with compound treated pig plasma at 20 ng/mL observed for 10 days relative to control; details: time 10.0 day
Plasmodium berghei = assay: In vivo antimalarial activity against blood stage Plasmodium berghei transfected with GFP infected in mouse assessed as supression of parasitemia at 0.5 mg/kg for 3 days relative to control; details: time 3.0 day
Anopheles sp. [11] = assay: Insecticidal in Anopheles sp. assessed as mortality rate fed with blood of compound treated human at 200 microg/kg administered once caught on day 3 after mass drug administration observed within 5 days relative to control; details: dose 200.0 µg/kg, time 5.0 day
Anopheles sp. [12] = assay: Insecticidal in Anopheles sp. assessed as mean plasma concentration fed with compound treated pig blood administered as a single dose at 600 microg/kg at 22 day post treatment; details: dose 600.0 µg/kg
Anopheles darlingi [13] = assay: Insecticidal in Anopheles darlingi infected with Plasmodium vivax assessed as lethal concentration fed with compound treated human blood observed for 7 days; details: time 7.0 day
Anopheles arabiensis [14] = assay: Insecticidal in Anopheles arabiensis assessed as reduction in survival rate fed with blood of compound treated human observed for […] relative to control
Anopheles arabiensis [15] = assay: Insecticidal in Anopheles arabiensis assessed as percentage of mortality in 10 day survivorship fed with compound treated bovine blood at 73 mg observed for 24 weeks relative to control
Anopheles gambiae [16] = assay: Insecticidal in Anopheles gambiae assessed as mean survival fed with blood of compound treated human at 200 microg/kg relative to control; details: dose 200.0 µg/kg
Anopheles arabiensis [17] = assay: Insecticidal in Anopheles arabiensis assessed as mortality fed with compound treated bovine blood at 200 microg/kg observed within 2 to 4 days after blood feeding relative to control; details: dose 200.0 µg/kg, time 2-4 day
Anopheles sp. [18] = assay: Insecticidal in Anopheles sp. infected with Plasmodium vivax assessed as lethality fed with blood isolated from compound treated human observed for 5 days; details: time 5.0 day
Anopheles sp. [19] = assay: Insecticidal in Anopheles sp. infected with Plasmodium falciparum gametocytes assessed as mortality fed with compound treated bovine blood at 200 microg/kg observed within 4 days feeding at 7 days post treatment relative to control; details: dose 200.0 µg/kg, time 4.0 day
Anopheles sp. [20] = assay: Insecticidal in Anopheles sp. assessed as egg hatching rate fed with compound treated human blood administered as a single dose at 10 microg/ml fed at 4 hrs post treatment; details: dose 10.0 µg/ml
Anopheles sp. [21] = assay: Insecticidal in Anopheles sp. infected with Plasmodium falciparum gametocytes assessed as reduction in fecundity fed with compound treated bovine blood at 200 microg/kg feeding at 21 days after injection relative to control; parameters: scale not given: the % may be the effect or the level left; details: dose 200.0 µg/kg
Anopheles sp. [22] = assay: Insecticidal in Anopheles sp. assessed as reduction in survival rate fed with compound treated human blood at 400 microg/kg observed in 48 hrs relative to control; details: dose 400.0 µg/kg
Culex quinquefasciatus = assay: Insecticidal in Culex quinquefasciatus assessed as mortality rate fed with blood of compound treated mouse at […], sc before 12 hrs and observed after 36 hrs relative to control
Anopheles sp. [23] = assay: Insecticidal in Anopheles sp. infected with Plasmodium vivax assessed as percentage of survival midgut fed with blood isolated from compound treated parasite-infected human at 40 ng/ml observed after 7 days relative to control; details: time 7.0 day
Anopheles sp. [24] = assay: Insecticidal in Anopheles sp. assessed as mean plasma concentration causing death within 2-4 days fed with compound treated pig blood administered as a single dose at 600 microg/kg at 1 day post treatment observed within 2 to 4 days; details: dose 600.0 µg/kg, time 2-4 day, pooled result: one value given for 4 cell lines, strains, targets or settings
Anopheles gambiae [25] = assay: Insecticidal in Anopheles gambiae G3 assessed as reduction in survivorship fed with blood of compound treated human at 150 microg/kg administered once; details: dose 150.0 µg/kg
Plasmodium vivax [26] = assay: Antimalarial activity against Plasmodium vivax assessed as reduction in […] in Anopheles sp. mosquito fed with blood containing plasma isolated from compound treated human observed after 4 days relative to control; details: time 4.0 day, dose or concentration not given here
Anopheles arabiensis [27] = assay: Insecticidal in Anopheles arabiensis assessed as reduction in number of eggs fed with compound treated bovine blood at 200 microg/kg relative to control; parameters: scale not given: the % may be the effect or the level left; details: dose 200.0 µg/kg
Anopheles sp. [28] = assay: Insecticidal in Anopheles sp. assessed as number of eggs per female fed with compound treated human blood administered as a single dose at 10 microg/ml fed at 4 hrs post treatment; details: dose 10.0 µg/ml
Plasmodium vivax [29] = assay: Antimalarial activity against Plasmodium vivax assessed as sporogony lethality in Anopheles darlingi mosquito fed with blood isolated from compound treated parasite-infected human observed after 7 days by measuring reduction in parasite prevalence level at Lc50 relative to control; parameters: scale not given: the % may be the effect or the level left; details: time 7.0 day
Anopheles sp. [30] = assay: In vivo Insecticidal in Anopheles sp. assessed as lethality membrane-fed with compound treated human blood at 400 microg/kg per day in presence of combination of 120 mg dihydroartemisinin, 960 mg piperaquine and 30 mg primaquine observed after 7 days; details: dose 400.0 µg/kg, time 7.0 day
Anopheles darlingi [31] = assay: Insecticidal in Anopheles darlingi infected with Plasmodium vivax assessed as mortality rate midgut fed with blood isolated from compound treated parasite-infected human observed after 7 days relative to control; details: time 7.0 day
Anopheles stephensi [32] = assay: Insecticidal in Anopheles stephensi assessed as mortality rate fed with blood of compound treated mouse at […], sc before 12 hrs and observed after 36 hrs relative to control

IVERMECTIN
Activity (Anopheles sp. [1]): 20%
inhibition (Plasmodium vivax [2]): 61.3%
LC50 (Aedes aegypti [3]): 0.601 µg/mL
mortality (Aedes albopictus): 100%
LC50 (Anopheles stephensi [4]): 7 ng/mL
inhibition (Plasmodium vivax [5]): 99.9%
Survival (Anopheles sp. [6]): 77%
mortality (Anopheles sp. [7]): 80%
MLC (Aedes aegypti [8]): 2.5 ppm
mortality (Anopheles sp. [9]): 70%
mortality (Anopheles gambiae [10]): 50%
Activity (Plasmodium berghei): 40%
mortality (Anopheles sp. [11]): 68%
Cp (Anopheles sp. [12]): 1.4 ng/mL
LC5 (Anopheles darlingi [13]): 14.8 ng/mL
LC25 (Anopheles darlingi [13]): 27.8 ng/mL
LC50 (Anopheles darlingi [13]): 0.0432 µg/mL
Survival (Anopheles arabiensis [14]): 50%
mortality (Anopheles arabiensis [15]): 90%
Survival (Anopheles gambiae [16]): 2.3 days
mortality (Anopheles arabiensis [17]): 80%
LC5 (Anopheles sp. [18]): 18.3 ng/mL
mortality (Anopheles sp. [19]): 100%
Activity (Anopheles sp. [20]): 74.8
Activity (Anopheles sp. [21]): 33%
Survival (Anopheles sp. [22]): 31%
mortality (Culex quinquefasciatus): 50%
Survival (Anopheles sp. [23]): 22%
Cp (Anopheles sp. [24]): 15.3 ng/mL
LC50 (Anopheles gambiae [25]): 0.0224 µg/mL
inhibition (Plasmodium vivax [26]): 99.9%
Activity (Anopheles arabiensis [27]): 82%
Activity (Anopheles sp. [28]): 22.4
Activity (Plasmodium vivax [29]): 22.6% and 17.1%
LC50 (Anopheles sp. [30]): 2.86 ng/mL
mortality (Anopheles darlingi [31]): 97.1%
mortality (Anopheles stephensi [32]): 100%
